Where “and” joins values, the source holds several entries; their conditions need not be identical. Identical values can stand only once. Toxic doses and inconclusive results are not listed. How the source made its calls: active means survival T/C of 150% or more; inactive means T/C below 125% in these data.
System: P388 leukemia ip, CD2F1 mice, survival T/C
Assay: NCI In Vivo Anticancer Drug Screen. Data for tumor model P388 Leukemia (intraperitoneal) in CD2F1 (CDF1) mice
Conditions: endpoint: median survival time, higher = longer survival
How it was run: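 Mice carrying the transplanted tumor received test compound or vehicle. Survival was recorded in each group, and the value is the treated-group measurement divided by that of the vehicle-treated control group.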

[1] = dose: 60.0 mg/kg/injection, schedule: Q01DX005 (ip), vehicle: saline with Tween-80
[2] = dose: 120.0 mg/kg/injection, schedule: Q01DX005 (ip), vehicle: saline with Tween-80
[3] = dose: 240.0 mg/kg/injection, schedule: Q01DX005 (ip), vehicle: saline with Tween-80
[4] = dose: 100.0 mg/kg/injection, schedule: Q01DX009 (ip), vehicle: saline
[5] = dose: 50.0 mg/kg/injection, schedule: Q01DX005 (ip), vehicle: Klucel (hydroxypropylcellulose) (HPC)
[6] = dose: 100.0 mg/kg/injection, schedule: Q01DX005 (ip), vehicle: Klucel (hydroxypropylcellulose) (HPC)
[7] = dose: 200.0 mg/kg/injection, schedule: Q01DX005 (ip), vehicle: Klucel (hydroxypropylcellulose) (HPC)
[8] = dose: 1.56 mg/kg/injection, schedule: Q01DX005 (ip), vehicle: Klucel (hydroxypropylcellulose) (HPC)
[9] = dose: 3.12 mg/kg/injection, schedule: Q01DX005 (ip), vehicle: Klucel (hydroxypropylcellulose) (HPC)
[10] = dose: 100.0 mg/kg/injection, schedule: Q01DX001 (ip), vehicle: Klucel (hydroxypropylcellulose) (HPC)
[11] = dose: 200.0 mg/kg/injection, schedule: Q01DX001 (ip), vehicle: Klucel (hydroxypropylcellulose) (HPC)
[12] = dose: 400.0 mg/kg/injection, schedule: Q01DX001 (ip), vehicle: Klucel (hydroxypropylcellulose) (HPC)
[13] = dose: 12.5 mg/kg/injection, schedule: Q01DX009 (ip), vehicle: saline with Tween-80
[14] = dose: 25.0 mg/kg/injection, schedule: Q01DX009 (ip), vehicle: saline with Tween-80

Measured: T/C

O=C1CC(O)(c2ccccc2)CS1 (configuration not stated)
inactive: dose: 100.0 mg/kg/injection, schedule: Q04DX003 (ip), vehicle: Klucel (hydroxypropylcellulose) (HPC) 107 % of control | dose: 200.0 mg/kg/injection, schedule: Q04DX003 (ip), vehicle: Klucel (hydroxypropylcellulose) (HPC) 105 % of control | dose: 400.0 mg/kg/injection, schedule: Q04DX003 (ip), vehicle: Klucel (hydroxypropylcellulose) (HPC) 100 % of control

Cc1ccc(S(=O)(=O)CCCCS(=O)(=O)c2ccc(C)cc2)cc1
inactive: [1] 107 % of control | [2] 104 % of control | [3] 97 % of control

CNc1nc(NC)nc(NC)n1
inactive: dose: 12.5 mg/kg/injection, schedule: Q01DX009 (ip), vehicle: saline 95 % of control | dose: 25.0 mg/kg/injection, schedule: Q01DX009 (ip), vehicle: saline 104 % of control | dose: 50.0 mg/kg/injection, schedule: Q01DX009 (ip), vehicle: saline 95 % of control | [4] 93 % of control

C=C(C)C(C)CC(NC(C)=O)C(=O)OC (configuration not stated)
inactive: dose: 62.5 mg/kg/injection, schedule: Q04DX002 (ip), vehicle: Klucel (hydroxypropylcellulose) (HPC) 96 % of control | dose: 125.0 mg/kg/injection, schedule: Q04DX002 (ip), vehicle: Klucel (hydroxypropylcellulose) (HPC) 99 % of control | dose: 250.0 mg/kg/injection, schedule: Q04DX002 (ip), vehicle: Klucel (hydroxypropylcellulose) (HPC) 93 % of control

Cc1c(NS(=O)(=O)c2ccccc2)c(C)c(NS(=O)(=O)c2ccccc2)c(C)c1NS(=O)(=O)c1ccccc1
inactive: dose: 50.0 mg/kg/injection, schedule: Q04DX003 (ip), vehicle: saline with Tween-80 100 % of control | dose: 100.0 mg/kg/injection, schedule: Q04DX003 (ip), vehicle: saline with Tween-80 90 % of control | dose: 200.0 mg/kg/injection, schedule: Q04DX003 (ip), vehicle: saline with Tween-80 90 % of control

COc1cccc2c1C(=O)c1c(O)c3c(c(O)c1C2=O)C[C@@](O)(C(=O)CSC(C)=O)C[C@@H]3OC1CC(N)C(O)C(C)O1 (some centres not stated)
inactive: dose: 25.0 mg/kg/injection, schedule: Q01DX009 (ip), vehicle: water 108 % of control and 90 % of control

C=C(C)C1NC(=O)C(C(O)c2cc(O)c(O)c(Cl)c2)N(C)C(=O)/C(=C/C(=O)O)NC(=O)/C(=C(\C)CC)NC(=O)C2C=CCN2C(=O)C(C(C)(O)CC)NC1=O (configuration not stated)
inactive: dose: 0.65 mg/kg/injection, schedule: Q01DX005 (ip), vehicle: Klucel (hydroxypropylcellulose) (HPC) 88 % of control | dose: 1.25 mg/kg/injection, schedule: Q01DX005 (ip), vehicle: Klucel (hydroxypropylcellulose) (HPC) 95 % of control | dose: 2.5 mg/kg/injection, schedule: Q01DX005 (ip), vehicle: Klucel (hydroxypropylcellulose) (HPC) 91 % of control

N#CCc1[nH]nc2ncnc(N)c12
inactive: dose: 6.25 mg/kg/injection, schedule: Q01DX009 (ip), vehicle: other 102 % of control | dose: 12.5 mg/kg/injection, schedule: Q01DX009 (ip), vehicle: other 103 % of control | dose: 25.0 mg/kg/injection, schedule: Q01DX009 (ip), vehicle: other 97 % of control | dose: 50.0 mg/kg/injection, schedule: Q01DX009 (ip), vehicle: other 97 % of control | dose: 100.0 mg/kg/injection, schedule: Q01DX009 (ip), vehicle: other 105 % of control

O=C(CC(=O)c1ccc(Cl)c(Cl)c1)Cc1ccc2ccccc2n1
inactive: [1] 90 % of control | [2] 97 % of control | [3] 88 % of control

COC(=O)c1c(C)cc(OC)c(C/C=C(\C)CCCc2coc(C=C(C)C)c2)c1OC
inactive: dose: 4.5 mg/kg/injection, schedule: Q01DX005 (ip), vehicle: Klucel (hydroxypropylcellulose) (HPC) 106 % of control | dose: 9.0 mg/kg/injection, schedule: Q01DX005 (ip), vehicle: Klucel (hydroxypropylcellulose) (HPC) 100 % of control | dose: 18.0 mg/kg/injection, schedule: Q01DX005 (ip), vehicle: Klucel (hydroxypropylcellulose) (HPC) 99 % of control | dose: 36.0 mg/kg/injection, schedule: Q01DX005 (ip), vehicle: Klucel (hydroxypropylcellulose) (HPC) 98 % of control | [5] 97 % of control | dose: 72.0 mg/kg/injection, schedule: Q01DX005 (ip), vehicle: Klucel (hydroxypropylcellulose) (HPC) 104 % of control | [6] 98 % of control | [7] 99 % of control

O=P(CCCCP(=O)(c1ccccc1)c1ccccc1)(c1ccccc1)c1ccccc1.[Cl][Sn]([Cl])([c]1ccccc1)[c]1ccccc1
inactive: [8] 114 % of control | [9] 114 % of control | dose: 12.5 mg/kg/injection, schedule: Q01DX005 (ip), vehicle: Klucel (hydroxypropylcellulose) (HPC) 115 % of control

C=CCNC(=O)/C(C)=C(/C)c1ccccc1
inactive: [10] 100 % of control | [11] 104 % of control | [12] 99 % of control

Nc1nnc(-c2ccccc2)nn1
inactive: dose: 50.0 mg/kg/injection, schedule: Q01DX005 (ip), vehicle: Klucel + Tween-80 91 % of control | dose: 100.0 mg/kg/injection, schedule: Q01DX005 (ip), vehicle: Klucel + Tween-80 95 % of control | dose: 200.0 mg/kg/injection, schedule: Q01DX005 (ip), vehicle: Klucel + Tween-80 100 % of control

COc1ccc2oc(N(C)c3ccccc3)c(C3OC4OC(C)(C)OC4C3OC)c(=O)c2c1 (configuration not stated)
inactive: dose: 25.0 mg/kg/injection, schedule: Q01DX001 (ip), vehicle: Klucel (hydroxypropylcellulose) (HPC) 97 % of control | dose: 50.0 mg/kg/injection, schedule: Q01DX001 (ip), vehicle: Klucel (hydroxypropylcellulose) (HPC) 105 % of control | [10] 109 % of control

COc1ccccc1NC(=O)C1=C(C)NC(C)=C(C(=O)Nc2ccccc2OC)C1c1ccc(Cl)cc1Cl
inactive: dose: 50.0 mg/kg/injection, schedule: Q01DX005 (ip), vehicle: saline with Tween-80 103 % of control | dose: 100.0 mg/kg/injection, schedule: Q01DX005 (ip), vehicle: saline with Tween-80 103 % of control | dose: 200.0 mg/kg/injection, schedule: Q01DX005 (ip), vehicle: saline with Tween-80 91 % of control

C/C=C(\C)C(=O)OC1CCC2(C)C3CCC4C5(O)CC(O)C6(O)C(CN7CC(C)CCC7C6(C)O)C5(O)CC42OC13O (configuration not stated)
inactive: [8] 98 % of control | dose: 1.56 mg/kg/injection, schedule: Q01DX005 (ip), vehicle: saline 96 % of control | [9] 106 % of control | dose: 3.12 mg/kg/injection, schedule: Q01DX005 (ip), vehicle: saline 96 % of control | dose: 6.25 mg/kg/injection, schedule: Q01DX005 (ip), vehicle: Klucel (hydroxypropylcellulose) (HPC) 109 % of control and 91 % of control | dose: 6.25 mg/kg/injection, schedule: Q01DX005 (ip), vehicle: saline 96 % of control

CC(C)(C)CC(C)(C)c1ccc(OCc2ccc(F)cc2)cc1
inactive: dose: 50.0 mg/kg/injection, schedule: Q01DX009 (ip), vehicle: saline with Tween-80 99 % of control | dose: 100.0 mg/kg/injection, schedule: Q01DX009 (ip), vehicle: saline with Tween-80 95 % of control | dose: 200.0 mg/kg/injection, schedule: Q01DX009 (ip), vehicle: saline with Tween-80 98 % of control

COc1c[nH]c(CO)cc1=O
inactive: [4] 101 % of control and 104 % of control | dose: 200.0 mg/kg/injection, schedule: Q01DX009 (ip), vehicle: saline 108 % of control and 114 % of control | dose: 400.0 mg/kg/injection, schedule: Q01DX009 (ip), vehicle: saline 99 % of control and 114 % of control

O=C(O)CCNC(Cc1ccc(O)cc1)C(=O)O (configuration not stated)
inactive: [5] 96 % of control | [6] 102 % of control | [7] 103 % of control

O=[N+]([O-])c1ccc(Sc2ccc(Cl)cc2)c2nonc12
inactive: dose: 6.25 mg/kg/injection, schedule: Q01DX009 (ip), vehicle: saline with Tween-80 105 % of control | [13] 101 % of control | [14] 93 % of control

Cc1cc(NCCCN(C)C)c2ccc3c(ccc4c(NCCCN(C)C)cc(C)nc43)c2n1
inactive: [13] 98 % of control | [14] 118 % of control

Clc1ncn[nH]1
inactive: [10] 99 % of control | [11] 106 % of control | [12] 122 % of control

CC(=O)[C@@H]1C[C@H]1C(=O)c1ccccc1
inactive: dose: 67.5 mg/kg/injection, schedule: Q04DX002 (ip), vehicle: Klucel (hydroxypropylcellulose) (HPC) 96 % of control | dose: 135.0 mg/kg/injection, schedule: Q04DX002 (ip), vehicle: Klucel (hydroxypropylcellulose) (HPC) 94 % of control | dose: 270.0 mg/kg/injection, schedule: Q04DX002 (ip), vehicle: Klucel (hydroxypropylcellulose) (HPC) 96 % of control

Source: PubChem BioAssay AID330 (DTP/NCI, 2004)
